Some test systems named below: OVCAR-5 ovarian; OVCAR-8 ovarian; SNB-75 CNS; CAKI-1 renal; ACHN renal; KM12 colon; LOX IMVI melanoma; HCC-2998 colon; A498 renal; SF-295 CNS; SK-OV-3 ovarian; HOP-62 NSCLC; SF-539 CNS; RXF 393 renal.
Holding throughout (assay): NCI anticancer screen, dose series, 48 h

Data on 9 compounds can be found in PubChem BioAssay (NCI).

Molecules are shown by their SMILES. “And” between values parts separate entries of the source, which are not always exact repeats. Equal entries are not always repeated.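 1) Cells in 96-well plates. 2) Compound, 48 h, 5 concentrations. 3) Linear interpolation between surrounding doses. 4) Unreached endpoint = highest concentration. GI50 marks 50% less growth. TGI marks complete inhibition of growth.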

With `CCOC(=O)c1csc(NC(=O)CN2CCCCC2)n1`, the TGI with OVCAR-5 ovarian, with OVCAR-8 ovarian, with SNB-75 CNS, in the assay with CAKI-1 renal, in the assay with ACHN renal and in the assay with KM12 colon was over 100 µM throughout. Also, the TGI with LOX IMVI melanoma, in the assay with HCC-2998 colon, with A498 renal, with SF-295 CNS, in the assay on SK-OV-3 ovarian and in the assay with HOP-62 NSCLC was over 100 µM each time. Moreover, the TGI in the assay on SF-539 CNS and with RXF 393 renal was over 100 µM in each case.

As to `CC(C)OP(=O)(OC(C)C)c1nn(-c2ccc([N+](=O)[O-])cc2)c(=N)s1`, the TGI in the assay on OVCAR-5 ovarian is over 100 µM; in the assay with OVCAR-8 ovarian, over 100 µM; in the assay on SNB-75 CNS, 95.5 µM; in the assay with CAKI-1 renal it was over 100 µM; in the assay with ACHN renal, over 100 µM; in the assay on KM12 colon, over 100 µM. In addition, the TGI in the assay with HCC-2998 colon, in the assay with A498 renal, in the assay on SF-295 CNS, in the assay on SK-OV-3 ovarian, in the assay with HOP-62 NSCLC and with SF-539 CNS was over 100 µM each time.

As for `O=c1cnn(C/C=C/CP(=O)(O)O)c(=O)[nH]1`, the TGI with OVCAR-5 ovarian, in the assay on OVCAR-8 ovarian, in the assay with SNB-75 CNS, in the assay on CAKI-1 renal, with ACHN renal and in the assay with KM12 colon was over 100 µM each time. For the same compound, the TGI in the assay on LOX IMVI melanoma, in the assay with HCC-2998 colon, in the assay with A498 renal, in the assay on HOP-62 NSCLC, with SF-539 CNS and with RXF 393 renal was over 100 µM each time.

Turning to `CC1=CC(=C(c2ccc(N)c(C)c2)c2ccc(N)c(C)c2)C=CC1=N`, the TGI in the assay on OVCAR-5 ovarian is over 84.4 µM; with OVCAR-8 ovarian, 18.3 µM; in the assay with SNB-75 CNS it was 8.91 µM; in the assay on CAKI-1 renal it was 62.4 µM; in the assay with ACHN renal, 69.2 µM; with KM12 colon it was 12.8 µM. For the same compound, the TGI with LOX IMVI melanoma was 15.3 µM; with HCC-2998 colon, 14.4 µM; in the assay with A498 renal, over 100 µM; in the assay with SF-295 CNS, 11.7 µM; in the assay on SK-OV-3 ovarian, 30.4 µM; in the assay on HOP-62 NSCLC it was 10.4 µM. The TGI with SF-539 CNS came to 14.5 µM; in the assay with RXF 393 renal, 51.2 µM.

Consider `O=S(=O)(O)c1cc(S(=O)(=O)O)c2c(N=Nc3ccccc3)c(O)ccc2c1`, for which the TGI with OVCAR-5 ovarian, with OVCAR-8 ovarian, with SNB-75 CNS, with CAKI-1 renal, with KM12 colon and in the assay on LOX IMVI melanoma was over 100 µM in each case. Moreover, the TGI in the assay on A498 renal, with SF-295 CNS, in the assay on SK-OV-3 ovarian, in the assay with HOP-62 NSCLC and with RXF 393 renal was over 100 µM each time.

On to `COC(=O)C1C(O)C(C)C(O)C(C)/C=C\C=C(C)C(=O)Nc2c(C)c(OC(C)=O)c3c(c2O)C(=O)C(C)=C2OCOC(=C23)C(C)=CC(C)(O)C(O)C(C)C1O` (stereo not given), for which the TGI in the assay on OVCAR-5 ovarian is over 100 µM; with OVCAR-8 ovarian, 47 µM and > 100 µM; in the assay on SNB-75 CNS, over 100 µM; in the assay on CAKI-1 renal it was over 62.2 µM; in the assay on ACHN renal it was over 100 µM; in the assay with KM12 colon, over 100 µM. Also, the TGI with LOX IMVI melanoma was 41 µM and > 100 µM; with HCC-2998 colon, over 100 µM; with A498 renal, over 75 µM; with SF-295 CNS it was over 100 µM; in the assay on SK-OV-3 ovarian, over 100 µM; in the assay on HOP-62 NSCLC it was over 100 µM. The TGI in the assay with SF-539 CNS was 74.3 µM and > 100 µM; with RXF 393 renal, 51.9 µM and > 100 µM. The GI50 was 23.6 µM in the assay on OVCAR-8 ovarian; 35.3 µM and 5.07 µM in the assay with SNB-75 CNS; 25.1 µM and > 100 µM with KM12 colon; 17.9 µM and 41.3 µM in the assay with LOX IMVI melanoma; over 100 µM in the assay with HCC-2998 colon; 20.9 µM and > 100 µM in the assay with RXF 393 renal.

On to `O=S(=O)(O)c1cccc2ccc(O)c(N=Nc3ccc(S(=O)(=O)c4ccc(N=Nc5c(O)ccc6cccc(S(=O)(=O)O)c56)cc4)cc3)c12`, for which the TGI with OVCAR-5 ovarian, with OVCAR-8 ovarian, in the assay on SNB-75 CNS, in the assay with CAKI-1 renal, in the assay on ACHN renal and with KM12 colon was over 100 µM in each case. Besides, the TGI with SF-295 CNS, in the assay with SK-OV-3 ovarian, in the assay on HOP-62 NSCLC and in the assay on RXF 393 renal was over 100 µM in each case.

In the case of `COC1C(=[N+]=[N-])C(=O)NC(=O)N1C1OC(COC(c2ccccc2)(c2ccccc2)c2ccccc2)C(O)C1O` (stereo not given), the TGI was determined as 31.7 µM in the assay on OVCAR-5 ovarian; 36.9 µM in the assay with OVCAR-8 ovarian; 29.5 µM in the assay with SNB-75 CNS; 56.1 µM in the assay on CAKI-1 renal; 38.3 µM in the assay on ACHN renal; 30.5 µM with KM12 colon. The TGI with LOX IMVI melanoma was found to be 30.1 µM; with HCC-2998 colon it was 32.8 µM; in the assay with A498 renal it was 35.4 µM; in the assay on SF-295 CNS, 37.4 µM; in the assay on SK-OV-3 ovarian it was 49.6 µM; with HOP-62 NSCLC, 41.1 µM. This compound yielded a TGI with SF-539 CNS of 35.6 µM.

As for `COc1cccc2c1C(=O)c1c(O)c3c(c(O)c1C2=O)CC(O)(C(C)=O)CC3OC1CC([N+](C)(C)C)C(O)C(C)O1` (stereo not given), the TGI in the assay with OVCAR-5 ovarian, with OVCAR-8 ovarian, with SNB-75 CNS, in the assay with CAKI-1 renal, in the assay on ACHN renal and in the assay with KM12 colon was over 100 µM in each case. Besides, the TGI with LOX IMVI melanoma, in the assay on HCC-2998 colon, with A498 renal, with SF-295 CNS, in the assay with SK-OV-3 ovarian and in the assay on HOP-62 NSCLC was over 100 µM each time. Also, the TGI in the assay on SF-539 CNS and in the assay on RXF 393 renal was over 100 µM each time.
